# How the values were obtained:
# Aspergillus spp. = conditions: compared with itraconazole; U.S. Pat. No. 4,916,134; cited from earlier work
# [1] = cited from earlier work
# [2] = solubility in water in the absence or presence of 2-hydroxypropyl-β-cyclodextrin (saturated solutions, UV spectrometry); type: physicochemical; conditions: ambient temperature
# Description: A 10 ml stock solution comprising 0, 2.5, 5, 7.5, 10, 20, 30 or 40% (weight by volume) 2-hydroxypropyl-β-cyclodextrin (M.S.=0.4) was put in a 20 ml tinted vial. To each vial there was added a quantity of itraconazole or saperconazole sufficient to yield a saturated solution. The vials were sonicated for 10 minutes and all vials were checked to ascertain that an undissolved remnant remained Where all the material had dissolved, another quantity of the material was added The vials were closed and protected from light by wrapping them in aluminum foil. The vials were then shaken in an appropriate apparatus. 24Hours later the vials were checked again to ascertain that an undissolved remnant of the material remained and where necessary a further quantity of the material was added. The vials were shaken for at least 72 hours and then allowed to stand until all undissolved material had precipitated. The vials were opened and the pH of the saturated solutions was measured. An aliquot of the supernatant solution was filtered and the amount of dissolved active ingredient was measured by UV spectrometry (255 nm), if necessary after diluting said aliquot to a concentration suitable for UV spectrometry.
# [3] = solubility in artificial gastric juice; type: physicochemical; conditions: ambient temperature
# Description: About 10 mg of either product was added to 100 ml artificial gastric juice (0.2 g NaCL+0.7 ml concentrated HCl diluted to 100 ml) at ambient temperature. The mixture was stirred and a sample was taken from each solution at regular intervals. The amount of dissolved active ingredient was determined following the procedure described in the previous example.
# [4] = 2-hydroxypropyl-β-cyclodextrin concentration 2.5%
# [5] = 2-hydroxypropyl-β-cyclodextrin concentration 5%
# [6] = 2-hydroxypropyl-β-cyclodextrin concentration 7.5%
# [7] = 2-hydroxypropyl-β-cyclodextrin concentration 10%
# [8] = 2-hydroxypropyl-β-cyclodextrin concentration 20%
# [9] = 2-hydroxypropyl-β-cyclodextrin concentration 30%
# [10] = 2-hydroxypropyl-β-cyclodextrin concentration 40%
Compound,solubility in water [1],"concentration in water [2, 4]","concentration in water [2, 5]","concentration in water [2, 6]","concentration in water [2, 7]","concentration in water [2, 8]","concentration in water [2, 9]","concentration in water [2, 10]",concentration of dissolved active ingredient ([3]; 1 h.),concentration of dissolved active ingredient ([3]; 2 h.),concentration of dissolved active ingredient ([3]; 3 h.),concentration of dissolved active ingredient ([3]; 4 h.),concentration of dissolved active ingredient ([3]; 6 h.),concentration of dissolved active ingredient ([3]; 26 h.),concentration of dissolved active ingredient ([3]; 46 h.),concentration of dissolved active ingredient ([3]; 51 h.),concentration of dissolved active ingredient ([3]; 69 h.),also measured
"CCC(C)n1ncn(-c2ccc(N3CCN(c4ccc(OCC5COC(Cn6cncn6)(c6ccc(F)cc6F)O5)cc4)CC3)cc2)c1=O (racemic) [saperconazole, (±)-cis-4-[4-[4-[4-[[2-(2,4-difluorophenyl)-2-(1H-2,4-triazol-1-yl-methyl)-1,3-dioxolan-4-yl]methoxylphenyl]-1-piperazinyl]-phenyl]-2,4-dihydro-2-(1-methylpropyl)-3H-1,2,4-triazol-3-one]",only very sparingly soluble in water,,,,,,,,,,,,,,,,,activity against Aspergillus spp. (Aspergillus spp.): improved activity against Aspergillus spp.
"(−)-[2S-[2α, 4α, 4(S)[[-4-[4-[4-[4-[[2-(2,4-dichlorophenyl-2(1H-1,2,4-triazol-1-ylmethyl)-1,3-dioxolan-4-yl]methoxy]phenyl]-1-piperazinyl]phenyl ]-2,4-dihydro-2-(1-methylpropyl)-3H-1,2,4-triazol-3-one [Compound 2]",,3.58 mg/100 ml,16.36 mg/100 ml,41.39 mg/100 ml,78.16 mg/100 ml,332 mg/100 ml,846 mg/100 ml,1720 mg/100 ml,,,,,,,,,,
"(+)-[2S-[2α, 4α, 4(R)]1-4-[4-[4-[4-[[2-(2,4-dichlor triazol-1-ylmethyl)-1,3-dioxolan-4-yl]methoxy]phenyl]-1-piperazinyl]phenyl]-2,4-dihydro-2-(1-methylpropyl)-3H-1,2,4-triazol-3-one [Compound 3]",,,,,,,,,0.32 mg/100 ml,0.69 mg/100 ml,1.09 mg/100 ml,1.41 mg/100 ml,1.94 mg/100 ml,3.93 mg/100 ml,5.08 mg/100 ml,5.39 mg/100 ml,6.36 mg/100 ml,concentration of dissolved active ingredient ([3]; 5 min.): 0.005 mg/100 ml; concentration of dissolved active ingredient ([3]; 15 min.): 0.037 mg/100 ml; concentration of dissolved active ingredient ([3]; 30 min.): 0.15 mg/100 ml
"CCC(C)n1ncn(-c2ccc(N3CCN(c4ccc(OCC5COC(Cn6cncn6)(c6ccc(Cl)cc6Cl)O5)cc4)CC3)cc2)c1=O (racemic) [itraconazole, (±)-cis-4-[4-[4-[4-[[2-(2,4-dichlorophenyl)-2-(1H-1,2,4-triazol-1-ylmethyl)-1,3-dioxolan-4-yl]methoxy]phenyl]-1-piperazinylphenyl]-2,4-dihydro-2-(1-methyl-propyl)-3H-1,2,4-triazol-3-one]",only very sparingly soluble in water,0.36 mg/100 ml,1.79 mg/100 ml,4.74 mg/100 ml,10.28 mg/100 ml,50 mg/100 ml,95 mg/100 ml,174 mg/100 ml,0.023 mg/100 ml,0.079 mg/100 ml,0.15 mg/100 ml,0.19 mg/100 ml,0.27 mg/100 ml,0.40 mg/100 ml,0.40 mg/100 ml,0.41 mg/100 ml,0.45 mg/100 ml,
"(+)-[2R-[2α,4α, 4(R)]]-4-[4-[4-[4[[dichlorophenyl)-2-(1H-1,2,4-triazol-1-ylmethyl)-1,3-dioxolan-4-yl]methoxy]phenyl]-1-piperazinyl]phenyl]-2,4-dihydro-2-(1-methylpropyl)-3H-1,2,4-triazol-3-one [Compound 4]",,2.43 mg/100 ml,15.84 mg/100 ml,41.70 mg/100 ml,83.72 mg/100 ml,481 mg/100 ml,1166 mg/100 ml,2017 mg/100 ml,,,,,,,,,,

# — patent US6346518B1, “Itraconazole and saperconazole stereoisomers” (Janssen Pharmaceutica N.V., priority 1995, dated 2002)
